These results are taken from patent US7282150B2, “Method of extracting and method of purifying an effective substance” (Ezaki Glico Co., Ltd., priority 2001, dated 2007).

Data set [1] can be described thus: THF extraction of glucoamylase (XL-4) treated glycosylation reaction solution. The data set is classed as physicochemical. Conditions: 1 ml + 1 ml THF. The procedure:
Thereafter, the mixture was incubated at 45° C. for 3 or 4 hours. After the incubation, the contents of glucose and maltose in the solution were confirmed by a HPLC analysis method. […] Glucose and maltose in the eluate were detected by a RI detector. […] After shaking, the mixture was allowed to stand for 1 hour. […] The aqueous phase was recovered. […] The amounts of glucose and maltose were measured by an HPLC analysis method using the aqueous phase. […] Glucose and maltose in the eluate were detected by a RI detector. […] Based on the obtained results and the above-described glucose concentration, maltose concentration and HQG concentration before extraction with THF, the extraction rate to the THF phase was calculated.

A short description of data set [2]: THF extraction of unconcentrated or concentrated glucoamylase-treated glycosylation reaction solution. The data set is classed as physicochemical. The settings on record: for Extraction rate (%), THF phase total: three THF extractions, 30° C. Here is the method: Thereafter, glucoamylase treatment was performed at 45° C. for 4 hours, thereby obtaining a reaction solution. […] Extraction was conducted under a condition of 30° C. The mixture was allowed to stand for 1 hour. The mixture was separated into two phases. The upper THF phase was recovered. […] The obtained THF phases were combined together. Note that although an intermediate layer was generated in the concentrate during the phase separation, the intermediate layer was included in the aqueous phase.

Data set [3] in a line: Influence of temperature on extraction to a tetrahydrofuran phase. The data set is classed as physicochemical. The settings on record: aqueous phase made up to 5 ml. The procedure:
Thereafter, the mixture was incubated at 45° C. for 4 hours to obtain a post-glucoamylase treatment reaction solution. […] Thereafter, the mixture was centrifuged at 3000 rpm for 5 minutes. […] The aqueous phase was recovered.

Data set [4] can be described thus: Extraction from aqueous 30% glucose solution with tetrahydrofuran or acetonitrile (absorbance at 280 nm of aqueous phase). The settings on record: single extraction; for starting amount extracted in the tetrahydrofuran phase: 10 ml THF + 10 ml aqueous solution containing 30% glucose; for starting amount extracted in the acetonitrile phase: 10 ml acetonitrile + 10 ml aqueous solution containing 30% glucose. The data set is classed as physicochemical. Here is the method:
(§1) 1 g of a mixture of catechins (SUNPHENON®; manufactured by Taiyo Kagaku Co., Ltd.) was dissolved in 100 ml of an aqueous solution containing 30% glucose to obtain a sample aqueous solution. The absorbance at 280 nm of the sample aqueous solution was measured. […] Thereafter, the mixture was allowed to stand for 30 minutes. […] The lower phase (aqueous phase) was recovered, and the volume and the absorbance at 280 nm thereof were measured. The amount of the catechins extracted in the upper phase (polar organic solvent phase) was calculated from a reduction in the absorbance at 280 nm of the lower phase and the solution volume of the lower phase.
This additional extraction operation to Example 1a was conducted except for use of 10 ml of acetonitrile instead of 10 ml of tetrahydrofuran.
as §1, with “of hesperidin glycosides (manufactured” for “of a mixture of catechins (SUNPHENON®; manufactured”, “by Toyo Sugar Refining” for “by Taiyo Kagaku”, “Ltd.) were” for “Ltd.) was”, “of hesperidin glycosides” for “of the catechins”, “phase. […] Further, similar operations and measurements were performed twice more by adding 5 ml of tetrahydrofuran to the aqueous phase recovered after the tetrahydrofuran extraction.” for “phase.”
This additional extraction operation to Example 3a was conducted except for use of 10 ml of acetonitrile instead of 10 ml of tetrahydrofuran.
(§2) 1 g of salicin was dissolved in 100 ml of an aqueous solution containing 30% glucose to obtain a sample aqueous solution. The absorbance at 280 nm of the sample aqueous solution was measured. […] Thereafter, the mixture was allowed to stand for 30 minutes. […] The lower phase (aqueous phase) was recovered, and the volume and the absorbance at 280 nm thereof were measured. The amount of salicin extracted in the upper phase (polar organic solvent phase) was calculated from a reduction in the absorbance at 280 nm of the lower phase and the solution volume of the lower phase.
This additional extraction operation to Example 5a was conducted except for use of 10 ml of acetonitrile instead of 10 ml of tetrahydrofuran.
(§3) 1 g of caffeic acid was dissolved in 100 ml of an aqueous solution containing 30% glucose to obtain a sample aqueous solution. The absorbance at 280 nm of the sample aqueous solution was measured. […] Thereafter, the mixture was allowed to stand for 30 minutes. […] The lower phase (aqueous phase) was recovered, and the volume and the absorbance at 280 nm thereof were measured. The amount of caffeic acid extracted in the upper phase (polar organic solvent phase) was calculated from a reduction in the absorbance at 280 nm of the lower phase and the solution volume of the lower phase.
This additional extraction operation to Example 7a was conducted except for use of 10 ml of acetonitrile instead of 10 ml of tetrahydrofuran.
(§4) 1 g of salicyl alcohol was dissolved in 100 ml of an aqueous solution containing 30% glucose to obtain a sample aqueous solution. The absorbance at 280 nm of the sample aqueous solution was measured. […] Thereafter, the mixture was allowed to stand for 30 minutes. […] The lower phase (aqueous phase) was recovered, and the volume and the absorbance at 280 nm thereof were measured. The amount of salicyl alcohol extracted in the upper phase (polar organic solvent phase) was calculated from a reduction in the absorbance at 280 nm of the lower phase and the solution volume of the lower phase.
This additional extraction operation to Example 9a was conducted except for use of 10 ml of acetonitrile instead of 10 ml of tetrahydrofuran.

The nature of data set [5]: Extraction from aqueous 30% glucose + 10% sodium chloride solution with acetone or isopropanol (absorbance at 280 nm of aqueous phase). Conditions: single extraction; for starting amount extracted in the acetone phase: 10 ml acetone + 10 ml aqueous solution containing 30% glucose and 10% sodium chloride; for starting amount extracted in the isopropanol phase: 10 ml isopropanol + 10 ml aqueous solution containing 30% glucose and 10% sodium chloride. The data set is classed as physicochemical. The procedure: as §1, with “Kagaku)” for “Kagaku Co., Ltd.)”, “glucose and 10% sodium chloride” for “glucose”
This additional extraction operation to Example 2a was conducted except for use of 10 ml of isopropanol instead of 10 ml of acetone.
as §1, with “of hesperidin glycosides (Toyo Sugar Refining” for “of a mixture of catechins (SUNPHENON®; manufactured by Taiyo Kagaku”, “Ltd.) were” for “Ltd.) was”, “glucose and 10% sodium chloride” for “glucose”, “of hesperidin glycosides” for “of the catechins”, “phase. […] Further, similar operations and measurements were performed twice more by adding 5 ml of acetone to the aqueous phase recovered after the acetone extraction.” for “phase.”
This additional extraction operation to Example 4a was conducted except for use of 10 ml of isopropanol instead of 10 ml of acetone.
as §2, with “glucose and 10% sodium chloride” for “glucose”
This additional extraction operation to Example 6a was conducted except for use of 10 ml of isopropanol instead of 10 ml of acetone.
as §3, with “glucose and 10% sodium chloride” for “glucose”
This additional extraction operation to Example 8a was conducted except for use of 10 ml of isopropanol instead of 10 ml of acetone.
as §4, with “0.1 g” for “1 g”, “glucose and 10% sodium chloride” for “glucose”
This additional extraction operation to Example 10a was conducted except for use of 10 ml of isopropanol instead of 10 ml of acetone.

For data set [6] the following is noted: cited from earlier work.
[7] abbreviates: unconcentrated amylase treatment reaction solution.

On to `OC[C@H]1O[C@H](O[C@H]2[C@H](O)[C@@H](O)C(O)O[C@@H]2CO)[C@H](O)[C@@H](O)[C@@H]1O` (mixture of isomers) [Maltose, maltose], for which the figures for the “Extraction rate to THF (%)” value in data set [1] ((XL-4) 1-fold glucoamylase treatment solution), in data set [1] ((XL-4) 1.5-fold glucoamylase treatment solution) and in data set [1] ((XL-4) 2-fold glucoamylase treatment solution) were 38.6%, 33.0% and 36.4%, respectively. The “Corrected concentration (equivalent in 5 ml) %, THF phase total” value in data set [2] (70% concentrate) turned out to be 0%; in data set [2] (80% concentrate) it was 0%; in data set [2] (setting [7]) it was 0.1%. Besides, the “Extraction rate (%), THF phase total” value in data set [2] (70% concentrate) was found to be 0%; in data set [2] (80% concentrate), 0%; in data set [2] (setting [7]), 3.2%.

For the compound `Oc1ccc(O)cc1` [HQ, hydroquinone], the “concentration of the aqueous phase after THF extraction” value is 0.9% in data set [3] (3° C.); 0.7% in data set [3] (10° C.); 1.0% in data set [3] (20° C.); 1.0% in data set [3] (22° C.); 1.0% in data set [3] (30° C.); 1.2% in data set [3] (45° C.).

In the case of `O=C(O)/C=C/c1ccc(O)c(O)c1` [caffeic acid], in data set [4], the “starting amount extracted in the tetrahydrofuran phase” value was 88.6% and the “starting amount extracted in the acetonitrile phase” value turned out to be 76.2%. In data set [5], the “starting amount extracted in the acetone phase” value worked out at 78.2% and the “starting amount extracted in the isopropanol phase” value was found to be 87.2%.

`C[C@@H]1O[C@@H](O[C@H]2[C@H](Oc3cc(O)c4c(c3)O[C@H](c3ccc(O)cc3)CC4=O)O[C@H](CO)[C@@H](O)[C@@H]2O)[C@H](O)[C@H](O)[C@H]1O` [naringin]: the solubility in water result in data set [6] was “poorly soluble in water”.

Turning to `COc1ccc([C@@H]2CC(=O)c3c(O)cc(O[C@@H]4O[C@H](CO)[C@@H](O)[C@H](O)[C@H]4O[C@@H]4O[C@@H](C)[C@H](O)[C@@H](O)[C@H]4O)cc3O2)cc1O` [neohesperidin], the solubility in water entry in data set [6] is “poorly soluble in water”.

`C[C@@H]1O[C@@H](OC[C@H]2O[C@@H](Oc3c(-c4ccc(O)c(O)c4)oc4cc(O)cc(O)c4c3=O)[C@H](O)[C@@H](O)[C@@H]2O)[C@H](O)[C@H](O)[C@H]1O` [rutin]: the solubility in acetone result in data set [6] (acetone) is given as “insoluble in acetone”. The solubility in water result in data set [6] is on record as “poorly soluble in water”.

Consider `OCc1ccccc1O[C@@H]1O[C@H](CO)[C@@H](O)[C@H](O)[C@H]1O` [salicin], for which, in data set [4], the “starting amount extracted in the tetrahydrofuran phase” value is on record as 96.5% and the “starting amount extracted in the acetonitrile phase” value is reported as 98.1%. Further, in data set [5], the “starting amount extracted in the acetone phase” value was 58.0% and the “starting amount extracted in the isopropanol phase” value came out at 97.0%.

On to `OCc1ccccc1O` [salicyl alcohol], for which, in data set [4], the “starting amount extracted in the tetrahydrofuran phase” value is listed as 98.7% and the “starting amount extracted in the acetonitrile phase” value is reported as 98.2%. Besides, in data set [5], the “starting amount extracted in the acetone phase” value was 87.7% and the “starting amount extracted in the isopropanol phase” value was determined as 98.7%.
